Values after ≈ are worked out from the molar mass of the structure shown.
System: Staphylococcus aureus
Assay: Antibacterial against Staphylococcus aureus
Format: functional
Settings: for MIC: Staphylococcus aureus

SMILES	-logMIC	MIC [µg/mL]
O=[N+]([O-])c1cc(-c2nc(-c3ccc(Oc4ccc(C(F)(F)F)cc4)cc3)no2)cnc1O	4.017	–
O=[N+]([O-])c1ccc(-c2nc(-c3ccc(Oc4ccccc4)cc3)no2)cc1F	1.081	128 (≈ 339 µM)
O=[N+]([O-])c1c[nH]c(-c2nc(-c3ccc(Oc4ccc(F)cc4)cc3)no2)c1	1.052	128 (≈ 349 µM)
C#Cc1c[nH]nc1-c1nc(-c2ccc(Oc3ccc(C(F)(F)F)cc3)cc2)no1	7.369	0.25 (≈ 0.631 µM)
O=[N+]([O-])c1ccc(-c2nc(-c3ccc(Oc4ccccc4)cc3)no2)cc1	1.032	128 (≈ 356 µM)
Ic1c[nH]nc1-c1nc(-c2ccc(Oc3ccccc3)cc2)no1	6.064	–
Oc1ccc(-c2nc(-c3ccc(Oc4ccc(C(F)(F)F)cc4)cc3)no2)cc1	5.987	–
O=C(O)c1ccc(-c2nc(-c3ccc(Oc4ccc(F)cc4)cc3)no2)cc1	1.079	128 (≈ 340 µM)
Oc1ccc(-c2nc(-c3ccc(Oc4cccc(CBr)c4)cc3)no2)cc1	4.662	4 (≈ 9.45 µM)
Oc1ccc(-c2nc(-c3ccc(F)cc3)no2)cc1	0.694	128 (≈ 500 µM)
O=[N+]([O-])c1cc(-c2noc(-c3ccc(O)cc3)n2)ccc1Oc1ccccc1	3.848	8 (≈ 21.3 µM)
O=[N+]([O-])c1c(F)cc(-c2nc(-c3ccc(Oc4ccc(C(F)(F)F)cc4)cc3)no2)cc1F	1.286	128 (≈ 276 µM)
Oc1ccc(-c2nc(-c3ccc(Oc4ccc(C(F)(F)F)cc4)cc3)no2)cc1F	5.338	–
Oc1ccc(-c2nc(-c3ccc(Oc4ccccc4)cc3)no2)cc1	5.8	–
O=[N+]([O-])c1ccc(-c2nc(-c3ccc(Oc4ccc(C(F)(F)F)cc4)cc3)no2)cc1F	1.247	128 (≈ 287 µM)
NS(=O)(=O)c1ccc(-c2nc(-c3ccc(Oc4ccc(C(F)(F)F)cc4)cc3)no2)cc1	1.282	128 (≈ 277 µM)
Fc1ccc(Oc2ccc(-c3noc(-c4ccc5[nH]ccc5c4)n3)cc2)cc1	5.224	2 (≈ 5.39 µM)
Oc1ccc(-c2nc(-c3ccc(Oc4ccccc4)cc3)no2)cc1F	4.467	–
O=C(O)c1cccc(Oc2ccc(-c3noc(-c4ccc(O)cc4)n3)cc2)c1	1.766	64 (≈ 171 µM)
O=C(c1cccc(Oc2ccc(-c3noc(-c4ccc(O)cc4)n3)cc2)c1)C(F)(F)F	4.669	4 (≈ 9.38 µM)

SMILES	-logMIC	MIC [µg/mL]
O=C(Nc1c[nH]nc1-c1nc(-c2ccc(Oc3ccc(C(F)(F)F)cc3)cc2)no1)c1ccccc1	1.345	128 (≈ 260 µM)
O=C1COc2cc(-c3nc(-c4ccc(Oc5ccccc5)cc4)no3)ccc2N1	1.102	128 (≈ 332 µM)
Nc1c[nH]nc1-c1nc(-c2ccc(Oc3ccc(F)cc3)cc2)no1	3.048	–
[N-]=[N+]=Nc1cc(-c2noc(-c3ccc(O)cc3)n2)ccc1Oc1ccccc1	5.224	2 (≈ 5.39 µM)
COc1ccc(Oc2ccc(-c3noc(-c4ccc(O)cc4)n3)cc2)cc1	5.194	2 (≈ 5.55 µM)
Brc1ccc(-c2nc(-c3ccccc3)no2)cc1	0.856	128 (≈ 425 µM)
Nc1c[nH]nc1-c1nc(-c2ccc(Oc3ccc(C(F)(F)F)cc3)cc2)no1	4.573	–
[N-]=[N+]=Nc1ccc(Oc2ccc(-c3noc(-c4ccc(O)cc4)n3)cc2)cc1	5.224	2 (≈ 5.39 µM)
NS(=O)(=O)c1ccc(-c2nc(-c3ccc(Oc4ccc(F)cc4)cc3)no2)cc1	1.168	128 (≈ 311 µM)
COc1ccc(-c2nc(-c3ccc(Oc4ccccc4)cc3)no2)cc1[N+](=O)[O-]	1.113	128 (≈ 329 µM)
Clc1c[nH]nc1-c1nc(-c2ccc(Oc3ccc(I)cc3)cc2)no1	6.141	1 (≈ 2.15 µM)
Fc1ccc(-c2nc(-c3ccccc3)no2)cc1	0.63	128 (≈ 533 µM)
O=[N+]([O-])c1c[nH]nc1-c1nc(-c2ccc(Oc3ccccc3)cc2)no1	5.163	–
Oc1ccc(-c2nc(-c3ccc(Oc4cccc(Br)c4)cc3)no2)cc1	4.628	4 (≈ 9.77 µM)
Oc1ccc(-c2nc(-c3ccc(Oc4ccc(F)cc4)cc3)no2)cc1F	5.21	–
Oc1ccc(-c2nc(-c3ccc(Oc4ccccc4CBr)cc3)no2)cc1	3.969	8 (≈ 18.9 µM)
COC(=O)c1ccc(-c2nc(-c3ccc(Oc4ccc(F)cc4)cc3)no2)cc1	1.115	128 (≈ 328 µM)
O=P(O)(O)c1ccc(-c2nc(-c3ccc(Oc4ccc(F)cc4)cc3)no2)cc1	1.17	128 (≈ 310 µM)
Fc1ccc(Oc2ccc(-c3noc(-c4n[nH]cc4Cl)n3)cc2)cc1Cl	5.276	2 (≈ 5.11 µM)
CCOP(=O)(OCC)c1c[nH]nc1-c1nc(-c2ccc(Oc3ccc(C(F)(F)F)cc3)cc2)no1	1.379	128 (≈ 252 µM)

SMILES	-logMIC	MIC [µg/mL]
O=[N+]([O-])c1c[nH]nc1-c1nc(-c2ccc(Oc3ccc(I)cc3)cc2)no1	4.084	8 (≈ 16.8 µM)
Fc1ccc(Oc2ccc(-c3noc(-c4n[nH]cc4Cl)n3)cc2)cc1F	6.619	0.5 (≈ 1.33 µM)
Clc1ccc(Oc2ccc(-c3noc(-c4n[nH]cc4Cl)n3)cc2)cc1Cl	6.01	1 (≈ 2.45 µM)
FC(F)(F)c1ccc(Oc2ccc(-c3noc(-c4n[nH]cc4Br)n3)cc2)cc1	6.11	–
O=[N+]([O-])c1cc(-c2nc(-c3ccc(Oc4ccc(F)cc4)cc3)no2)cnc1O	3.898	–
COc1ccc(-c2nc(-c3ccc(Br)cc3)no2)cc1	0.951	128 (≈ 387 µM)
Fc1ccc(Oc2ccc(-c3noc(-c4ccc(Br)cc4)n3)cc2)cc1	1.167	128 (≈ 311 µM)
FC(F)(F)c1ccc(Oc2ccc(-c3noc(-c4n[nH]cc4NC4CCCC4)n3)cc2)cc1	1.269	128 (≈ 281 µM)
Fc1ccc(Oc2ccc(-c3noc(-c4n[nH]cc4Br)n3)cc2)cc1F	6.038	1 (≈ 2.39 µM)
Nc1cc(-c2nc(-c3ccc(Oc4ccc(F)cc4)cc3)no2)cnc1O	1.046	128 (≈ 351 µM)
CCC(C)Nc1c[nH]nc1-c1nc(-c2ccc(Oc3ccc(C(F)(F)F)cc3)cc2)no1 (configuration not stated)	1.243	128 (≈ 289 µM)
Oc1c(F)cc(-c2nc(-c3ccc(Oc4ccc(F)cc4)cc3)no2)cc1F	3.872	–
FC(F)(F)c1ccc(Oc2ccc(-c3noc(-c4ccc5[nH]ccc5c4)n3)cc2)cc1	4.657	–
N#Cc1c[nH]nc1-c1nc(-c2ccc(Oc3ccc(C(F)(F)F)cc3)cc2)no1	5.292	–
Nc1ccc(-c2nc(-c3ccc(Oc4ccccc4)cc3)no2)cc1	4.411	–
Nc1c[nH]c(-c2nc(-c3ccc(Oc4ccc(F)cc4)cc3)no2)c1	0.966	128 (≈ 381 µM)
Nc1ccc(-c2nc(-c3ccc(Oc4ccc(C(F)(F)F)cc4)cc3)no2)cc1	5.985	–
NC(=O)c1ccc(-c2nc(-c3ccc(Oc4ccc(F)cc4)cc3)no2)cc1	1.158	128 (≈ 341 µM)
O=C(Nc1c[nH]nc1-c1nc(-c2ccc(Oc3ccc(C(F)(F)F)cc3)cc2)no1)c1ccccn1	1.347	128 (≈ 260 µM)
O=[N+]([O-])c1c[nH]nc1-c1nc(-c2ccc(Oc3ccc(F)cc3)cc2)no1	5.906	–
